{"source": "patent US20250281478A1", "about": "“METHODS FOR PREVENTING OR TREATING KIDNEY DISEASES” (JEAMOON BEIJING CO., LTD., priority 2022, published 2025)", "type_in_all_cases": "in vivo, C57BL/6N mice", "key": {"[1]": {"tested_on": "mice with adenine-induced renal failure", "assay": "Survival of mice with adenine-induced renal failure", "details": "TAK875 30 mg/kg p.o. QD", "protocol": "• 1. Experimental Animals: C57BL/6N, 8 weeks old, SPF grade, male. • 2. Experimental Drugs: • LY2922470 (Shanghai Taoshu Biotechnology Co., Ltd.) • TAK875 (Shanghai Taoshu Biotechnology Co., Ltd.)\n1) Preparation of TAK875: A total of 27 mg of TAK875 powder was accurately weighed using an analytical balance and dissolved in 9 mL of 0.8% CMC-Na solution. The mixture was sonicated for 5 minutes to form a 3 mg/mL white suspension. The suspension was stored at 4° C. for later use.\n2) Preparation of LY2922470: A total of 80 mg of LY2922470 yellow crystals was added to 200 μL of DMSO to form a clear yellow solution. The solution was gradually added in batches to 10 mL of 0.8% CMC-Na solution. After heating and sonication for 5 hours, an 8 mg/mL white suspension of LY2922470 was obtained. The suspension was stored at 4° C. for later use.\nEight-week-old male C57BL/6N mice were acclimatized for one week and then randomly divided into six groups. Except for the control group, all mice were fed a 0.25% adenine-containing diet for modelling. The control group received a normal diet. The mice had free access to food. One week after model induction, mice in each group were orally administered the corresponding drug once daily in the afternoon, according to their group assignment. The control group and the model group received vehicle under a same condition. During the treatment period, the adenine-containing diet was continued. Mouse survival was monitored until the end of the experiment."}, "[2]": {"tested_on": "mice with sustained adenine-induced renal failure", "assay": "Glomerular filtration rate in mice with sustained adenine-induced renal failure (TGFR system)", "details": "TAK875 30 mg/kg p.o. QD for 2 weeks; 3 weeks continuous 0.25% adenine diet; FIG. 4", "protocol": "(§1) • a) Control group: Fed with adenine-free feed; other procedures were the same as those in the model group. • b) Model group: Fed with feed containing 0.25% adenine for modelling. • c) LY-10 mg/kg group: Model+LY2922470 (10 mg/kg, p.o., QD). • d) LY-30 mg/kg group: Model+LY2922470 (30 mg/kg, p.o., QD). • e) LY-60 mg/kg group: Model+LY2922470 (60 mg/kg, p.o., QD). • f) TAK875 group: Model+TAK875 (30 mg/kg, p.o., QD).\n(§2) Except for the control group, all other mice were fed with a diet containing 0.25% adenine for modelling. The control group was fed with a normal diet. All mice were allowed free access to food. One week after modeling, each group of mice was administered the respective treatment via oral gavage once daily in the afternoon for two consecutive weeks. The control group and the model group received vehicle under a same condition. The adenine-containing diet was continuously administered for modeling throughout the treatment period until the end of the experiment. The physical condition of the mice was monitored, and body weight was measured and recorded weekly. Blood samples were collected from the orbital venous plexus at 1 week (post-modeling) and 3 weeks (after 2 weeks of treatment). Serum was separated for the measurement of serum creatinine (CRE) and blood urea nitrogen (BUN). At the end of the two-week treatment, renal function of each group was assessed using a TGFR renal function monitoring and smart analysis system. After testing, tissues were collected from the mice to confirm the efficacy of the treatment.\n(§3) Statistical analyses were performed using GraphPad Prism 8.0 software. Continuous data of each group were expressed as mean+SD. One-way ANOVA was used for multi-group comparisons, and Student's t-test was used for comparisons between two groups. A p-value<0.05 was considered statistically significant. For categorical data, chi-square tests were used to compare between groups, with p<0.05 indicating a statistically significant difference.\nOne week later, LY2922470 or TAK875 was administrated for treatment. […]"}, "[3]": {"tested_on": "mice with adenine-induced renal failure", "assay": "Blood urea nitrogen (BUN) in adenine-induced renal failure mice", "protocol": "as §1, §2, §3\n(§4) Mice were fed a 0.25% adenine-containing diet. After one week, the mice were treated with LY2922470 or TAK875. During the treatment period, the adenine-containing diet was continued for modeling. After three weeks of adenine feeding (i.e., two weeks of drug administration), blood samples were collected from the mice, and serum was isolated for CREA and BUN measurements."}, "[4]": {"tested_on": "mice with adenine-induced renal failure", "assay": "Renal fibrosis by Masson's trichrome staining in adenine-induced renal failure mice", "details": "TAK875 30 mg/kg p.o. QD for 2 weeks; 3 weeks of modeling; FIG. 6", "protocol": "Mice were modeled and administered drugs as described in Example 3. After two weeks of drug administration, the mice were euthanized, and their kidneys were fixed, sectioned, stained with Masson's trichrome, and analyzed.\nWhole-slide scanning was performed using a fully automated digital pathology scanner KF-PRO-120 from Ningbo Jiangfeng Bioinformatics Technology Co., Ltd. Masson-stained images were analyzed using the Area Quantification module in HALO software. The blue staining of collagen fibers was used as the unified criterion for positivity. The images were analyzed, and the percentage of blue-stained collagen fibers in the tissue was calculated.\nStatistical analysis was conducted using GraphPad Prism 8.0. Continuous data for each group were expressed as mean+SD. One-way ANOVA was used for multi-group comparisons, and Student's t-test was used for comparisons between two groups. A p-value<0.05 was considered statistically significant. For categorical data, chi-square tests were used for comparisons among groups, and a p-value<0.05 was considered statistically significant."}, "[5]": {"tested_on": "mice with adenine-induced renal failure", "assay": "Serum creatinine (CREA) in adenine-induced renal failure mice", "protocol": "as §1, §2, §3, §4"}, "[6]": {"details": "TAK875 30 mg/kg p.o. QD for 2 weeks"}, "[7]": {"details": "TAK875 30 mg/kg p.o. QD, mean ± SD"}}, "data": [{"compound": "Cc1cc(OCCCS(C)(=O)=O)cc(C)c1-c1cccc(COc2ccc3c(c2)OC[C@H]3CC(=O)O)c1", "note": "[TAK875]", "values": [{"measurement": "Survival Rate (%)", "setting": "[1]; started 1 week after start of continued 0.25% adenine diet, end of experiment, 30 mg/kg", "result": 46.2, "unit": "%"}, {"measurement": "Count after Drug Administration (surviving mice)", "setting": "[1]; 13 at enrollment", "result": 6}, {"measurement": "GFR compared with the model group", "setting": "[2]", "result": "increased"}, {"measurement": "BUN level compared with the model group", "setting": "[3]; [6]", "result": "did not significantly reduce"}, {"measurement": "BUN after modeling for 3 weeks (after drug administration for 2 weeks)", "setting": "[3]; [7]", "result": "25.07 ± 4.91", "unit": "mmol/L"}, {"measurement": "BUN after modeling for 1 week (before drug administration)", "setting": "[3]; baseline of the TAK875 30 mg/kg group, mean ± SD", "result": "11.25 ± 3.98", "unit": "mmol/L"}, {"measurement": "Degree of renal fibrosis compared to the model group (Masson staining)", "setting": "[4]", "result": "not significantly reduced"}, {"measurement": "CREA level compared with the model group", "setting": "[5]; [6]", "result": "did not significantly reduce"}, {"measurement": "CREA after modeling for 3 weeks (after drug administration for 2 weeks)", "setting": "[5]; [7]", "result": "137.68 ± 30.23", "unit": "µmol/L"}]}]}
